Reference: paper PMC8124774, “Tuning Anti-Biofilm Activity of Manganese(II) Complexes: Linking Biological Effectiveness of Heteroaromatic Complexes of Alcohol, Aldehyde, Ketone, and Carboxylic Acid with Structural Effects and Redox Activity” (International Journal of Molecular Sciences, 2021)
“And” between values parts separate entries of the source, which are not always exact repeats. Identical values can stand only once.

How the values were obtained:
[1] = system: primary human fibroblasts (VH10); assay: cytotoxicity, MTT test; format: cell-based; conditions: VH10 cells, 24 h, 15–1000 µM
Procedure: Primary human fibroblasts (VH10) were cultured at 37 °C in a humidified 5% CO2 atmosphere in plastic dishes in Dulbecco’s modified eagle medium (DMEM) supplemented with 10% heat inactivated fetal calf serum, 2 mM of l-glutamine, and antibiotics (100 units/mL penicillin and 100 µg/mL streptomycin). Cytotoxic properties of manganese complexes were measured by EZcount^TM MTT cell assay kit (HiMedia Laboratories Pvt., Ltd., Mumbai, India) in accordance with the manufacturer’s instructions. Cells were seeded into a 96-well plate and incubated with manganese complexes in the concentration range of 15–1000 µM for 24 h at 37 °C in a humidified atmosphere of 5% CO2. After incubation, a solution of MTT (3-[4,5-dimethylthiazol-2-yl]-2, 5-diphenyl tetrazolium bromide) at a concentration (1 mg/mL) was added to each well. After incubation at 37 °C for 4 h, 100 µL of 0.04 M HCl in isopropanol was added to each well and mixed thoroughly to dissolve the dark blue crystals. The measurement of absorbance of the solution related to the number of live cells was conducted on a TECAN Spark Microplate Reader (TECAN, Männedorf, Switzerland) at 570 nm with a reference wavelength 600 nm. All samples were tested in three independent experiments. Results were normalized to the control.
Inhibitory concentrations (IC50) represent the concentrations of the tested samples required to inhibit 50% cell proliferation and were calculated from the mean values of data from wells.

[2] = system: P. aeruginosa PAO1 biofilm; assay: biofilm formation, crystal violet staining assay; format: cell-based, Pseudomonas aeruginosa; conditions: P. aeruginosa PAO1, vs untreated control
Procedure: (§1) All bacteria species were cultivated in trypticase soy broth (TSB) medium (Biocorp, Warsaw, Poland) for 18 h at 37 °C with shaking (160 rpm). Overnight cultures of bacteria were diluted 1:100 into fresh TSB medium and then placed in each of the 96 wells of a microtiter transparent plate (Greiner, Monroe, NC, USA). The manganese(II) complexes—[Mn-pyOH-SO4]n, Mn-imCHO-NO3, Mn-imCHO-Cl, Mn-dipyCO-NO3—and the ligands—pyOH, pyCOOH—were prepared by dissolving compounds in distilled water. […] The starting stock solution was of 2-mM concentration.
To evaluate the effect of the compounds on P. aeruginosa biofilm formation, a crystal violet staining assay was used, following previously described protocols. The concentration of the investigated compounds was in the range 0.0625–1 mM. The amount of biofilm formed was determined by measuring the absorbance at λ = 595 nm with the Infinite M200 PRO microplate reader (Tecan, Männedorf, Switzerland). The measurement results, expressed in absorbance units, were converted into percentages to allow the comparison of numerical data obtained in different experiments.

[3] = system: Pseudomonas aeruginosa LES B58; assay: broth microdilution MIC, P. aeruginosa LES B58; format: cell-based; conditions: P. aeruginosa LES B58, planktonic cells
Procedure: (§2) The antimicrobial activities of the heteroaromatic ligands, Mn(II) complexes, and commercially available drug streptomycin were tested against standard bacterial strains: Staphylococcus aureus ATCC 6538P, Escherichia coli ATCC 8739, Pseudomonas aeruginosa PAO1 (biofilm model strain), and Pseudomonas aeruginosa LES B58 (clinical isolate). The P. aeruginosa PAO1 and LES B58 isolates were derived from the International Pseudomonas aeruginosa Reference Panel (http://bccm.belspo.be/about-us/bccm-lmg, accessed on 30 March 2021).
as §1
(§3) The quantitative assay of the antibacterial activity was performed by the broth microdilution method, in 96-well microtiter plates, in order to establish the minimum inhibitory concentration (MIC). To this purpose, serial two-fold dilutions of the compounds ranging between 1 and 0.0625 mM were made. The details of the experiment were presented in our previous paper.

[4] = molecular target: T1, catalase from the bovine liver (Bos taurus, UniProt P00432); assay: catalase activity in the presence of the Mn(II) complexes (absorbance at 240 nm); format: biochemical; conditions: 0.5 mM complex, vs catalase alone
T1 construct: The catalase from the bovine liver solution; purchased Sigma–Aldrich; host or cells: bovine liver
T1 sequence (P00432 2-527 limits assumed): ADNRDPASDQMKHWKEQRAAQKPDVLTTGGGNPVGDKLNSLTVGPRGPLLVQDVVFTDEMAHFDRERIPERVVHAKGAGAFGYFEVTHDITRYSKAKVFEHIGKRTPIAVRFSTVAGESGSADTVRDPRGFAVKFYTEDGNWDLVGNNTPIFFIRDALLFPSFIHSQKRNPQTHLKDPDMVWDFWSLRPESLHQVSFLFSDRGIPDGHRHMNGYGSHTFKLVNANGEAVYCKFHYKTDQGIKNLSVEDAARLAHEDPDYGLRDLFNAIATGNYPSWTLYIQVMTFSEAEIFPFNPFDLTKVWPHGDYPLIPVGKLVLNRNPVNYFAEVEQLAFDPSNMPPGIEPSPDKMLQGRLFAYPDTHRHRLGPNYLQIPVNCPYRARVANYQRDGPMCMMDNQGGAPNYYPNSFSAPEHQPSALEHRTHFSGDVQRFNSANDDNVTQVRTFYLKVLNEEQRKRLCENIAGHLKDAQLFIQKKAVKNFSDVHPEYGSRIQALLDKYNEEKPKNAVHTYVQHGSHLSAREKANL
Procedure: First, the complexes were incubated with the catalase in the presence of a phosphate buffer, and then hydrogen peroxide was added thereto. To study the effect of the manganese complexes on the activity of CAT, its performance, in the presence of similar concentrations of the Mn complexes (0.5 mM), was investigated. The percentage of absorbance reduction over time was recorded at 240 nm. The positive control was the catalase sample in the absence of the Mn(II) complex. Figure 12 illustrates the effect of the Mn(II) complexes on the catalase activity.
The effect of the manganese complexes on the activity of catalase (CAT) was determined using the spectrophotometric method. The decrease in absorbance due to hydrogen peroxide depletion was recorded at 240 nm by the V-780 UV-Vis/NIR spectrophotometer (Jasco, Easton, MD, USA). The tests were performed in a 50-mM potassium phosphate buffer (PBS) at 37 °C, pH = 7.0. The catalase from the bovine liver solution (Sigma–Aldrich, St. Louis, MO, USA, lyophilized powder, ≥10,000 units/mg protein) was prepared in the PBS buffer as an initial dilution of ~1000 units/mL at 37 °C. The hydrogen peroxide solution, approximately 0.03% (w/w), was prepared by dilution in the PBS buffer to achieve the absorbance close to 1 a.u, and the PBS was used as a blank. The manganese complexes were diluted in the PBS buffer to stock the concentration of 1 mM. The mixture of 500 µL of the hydrogen peroxide, 1 µL of the catalase (final 1U of catalase activity), and 500 µL of the manganese complexes, previously incubated in a water bath at 37 °C, was added to a quartz cuvette (10 mm, 1 mL), closed by a cover, and placed in the spectrophotometer. The absorbance readings were performed in 10-s intervals during the first minute of the incubation time at 37 °C. The results were presented as the dependence on the percentage of the absorbance reduction over time.

[5] = system: Pseudomonas aeruginosa PAO1; assay: broth microdilution MIC, P. aeruginosa PAO1; format: cell-based; conditions: P. aeruginosa PAO1, planktonic cells
Procedure: as §2, §1, §3

SMILES	IC50 [1]	% Inhibit. Biofilm (0.25 mM) [2]	% Inhibit. Biofilm (0.5 mM) [2]	MIC [3]	Action on catalase activity [4]	MIC [5]
Cc1[nH]cnc1C=O.Cc1[nH]cnc1C=O.O=[N+]([O-])[O-].O=[N+]([O-])[O-].[Mn+2] [Mn-imCHO-NO3]	> 1 mM	52%	56%	> 1 mM and > 399 μg/ml	promote the catalase activity	> 1 mM and > 399 μg/ml
O=[N+]([O-])[O-].O=[N+]([O-])[O-].OCc1ccccn1.OCc1ccccn1.[Mn+2] [Mn-pyOH-NO3]	1 mM	49%	54%	> 1 mM and > 397 μg/ml	promote the catalase activity	> 1 mM and > 397 μg/ml
